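Five concentrations, 48 hours, 96-well plates. At the GI50, growth is halved.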 Calls of active or inactive are those of the source. Rule as the data show it: active = GI50 up to about 1.1 µM and inactive = higher.
Columns and labels:
Assay in all cases: NCI-60 cell line screen, 48 h
[1] = system: RXF 393
[2] = system: LOX IMVI
[3] = system: UACC-62
[4] = system: NCI-H23
[5] = system: OVCAR-4
[6] = system: OVCAR-5
[7] = system: SK-MEL-5
[8] = system: SW-620
[9] = system: HOP-92
[10] = system: Hs-578T
[11] = system: SK-OV-3
[12] = system: A498
[13] = system: NCI/ADR-RES
[14] = system: OVCAR-8
[15] = system: COLO 205
[16] = system: IGROV-1
[17] = system: Malme-3M
[18] = system: BT-549
[19] = system: NCI-H226

Measured: GI50

Cn1c(=O)c2c3ccccc3n(C)c2n(C)c1=O
inactive: [1] > 100 µM | [2] > 100 µM | [3] > 100 µM | [4] > 100 µM | [5] > 100 µM | [6] > 100 µM | [7] > 100 µM | [8] > 100 µM | [9] > 100 µM | [10] > 100 µM | [11] 22.3 µM | [12] > 100 µM | [13] > 100 µM | [14] > 100 µM | [15] > 100 µM | [16] > 100 µM | [17] > 100 µM | [18] > 100 µM | [19] > 100 µM

CCCCOC(=O)C1CN2C(=NC1(C(F)(F)F)C(F)(F)F)Sc1ccccc12 (configuration not stated)
inactive: [1] 24.1 µM | [2] 43.5 µM | [3] 47.1 µM | [4] 24.5 µM | [5] 45.5 µM | [6] > 100 µM | [7] 20 µM | [8] 49.5 µM | [9] 72.4 µM | [10] 30.6 µM | [11] 78.5 µM | [12] > 100 µM | [13] 27 µM | [14] 43.6 µM | [15] 31.8 µM | [16] 11 µM | [17] 53.1 µM | [18] 26.1 µM | [19] 27 µM

COc1ccc(/C=C(/c2ccccc2)c2c(C)cc(C)c(/C(=C\c3ccc(OC)cc3)c3ccccc3)c2/N=N/c2cc(C)cc(C)c2)cc1
inactive: [1] 32.3 µM | [2] 24.2 µM | [3] 45.6 µM | [4] 14.4 µM | [5] 20.1 µM | [6] > 84.5 µM | [7] 17.6 µM | [8] 13.5 µM | [9] 33.6 µM | [10] 22.5 µM | [11] 41 µM | [12] 32.7 µM | [13] > 100 µM | [14] 17.9 µM | [15] 8.04 µM | [16] 14.4 µM | [17] 17.9 µM | [18] 45.3 µM | [19] 34.2 µM

Source: ChEMBL document CHEMBL1201862, “PubChem BioAssay data set” (2004)
